# Data published in BindingDB's records for doi:10.1111/cbdd.12587 (Jiangnan University, 2015).
# Target: T1, Tyrosine-protein phosphatase non-receptor type 1 (Homo sapiens, UniProt P18031)
# T1 sequence (P18031 whole entry): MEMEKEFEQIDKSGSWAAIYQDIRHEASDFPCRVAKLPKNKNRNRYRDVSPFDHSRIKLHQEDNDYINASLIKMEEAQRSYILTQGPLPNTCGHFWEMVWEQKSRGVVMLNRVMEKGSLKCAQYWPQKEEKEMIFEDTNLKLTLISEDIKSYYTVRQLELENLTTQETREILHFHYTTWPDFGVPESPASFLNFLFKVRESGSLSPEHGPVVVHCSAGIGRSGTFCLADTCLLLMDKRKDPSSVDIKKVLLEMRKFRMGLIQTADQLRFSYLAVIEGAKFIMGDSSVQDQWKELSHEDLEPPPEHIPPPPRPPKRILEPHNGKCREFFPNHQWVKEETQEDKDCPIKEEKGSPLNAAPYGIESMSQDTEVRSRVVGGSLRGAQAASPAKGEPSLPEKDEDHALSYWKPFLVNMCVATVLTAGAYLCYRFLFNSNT
# Assay: Colorimetric Assay
# Conditions: pH 6.5
# Method: Briefly, the tested compounds were solubilized in DMSO and serially diluted into concentrations for the inhibitory test. The assays were carried out in a final volume of 100 µL containing 50 mmol/L MOPS, pH 6.5, 2 mmol/L pNPP, 21 nmol/L GST-PTP1B or GST-TCPTP, and 2% DMSO, and the catalysis of pNPP was continuously monitored on a SpectraMax 340 microplate reader at 405 nm for 3 min at 30 °C
row,IC50 [µM],Compound
1,4.96,"O=C(c1ccc(-c2ccc(C(=O)N3CCC4(CC3)CC(c3ccccc3F)=NO4)cc2)cc1)N1CCC2(CC1)CC(c1ccccc1F)=NO2 [Biphenyl-4,4'-diylbis((3-(2-fluorophenyl)-1-oxa-2,8-diazaspiro[4.5]dec-2-en-8-yl)methanone) (6g)]"
2,5.33,"O=C(c1ccc(-c2ccc(C(=O)N3CCC4(CC3)CC(c3cccc(F)c3)=NO4)cc2)cc1)N1CCC2(CC1)CC(c1cccc(F)c1)=NO2 [Biphenyl-4,4'-diylbis((3-(3-fluorophenyl)-1-oxa-2,8-diazaspiro[4.5]dec-2-en-8-yl)methanone) (6h)]"
3,2.87,"O=C(c1ccc(-c2ccc(C(=O)N3CCC4(CC3)CC(c3ccccc3)=NO4)cc2)cc1)N1CCC2(CC1)CC(c1ccccc1)=NO2 [Biphenyl-4,4'-diylbis((3-phenyl-1-oxa-2,8-diazaspiro[4.5]dec-2-en-8-yl)methanone) (6f)]"
